Data as given in patent publication US20100144636A1, “PEPTIDES DERIVED FROM RAS-P21 AND USES THEREFOR” (THE RESEARCH FOUNDATION OF STATE UNIVERSITY OF NEW YORK, priority 2008, published 2010).
Where no end group is shown, it is not given here.

Assays:
[1] = tested on: BMRPA1 normal rat pancreatic acinar cells; assay: Growth and viability of untransformed BMRPA1 cells incubated with peptide; format: cell-based
Experimental: (§1) MIAPaCa-2 cells were grown in Dulbecco's modified Eagle's medium (GIBCO) supplemented with heat inactivated 10% fetal calf serum, 20 mM glutamine, penicillin (100 units/ml), streptomycin (100/ug/ml) and plated on a six-well plate with density no more then 20,000 cells/well in 3 ml culture medium. HT1080 cells were cultured in RPMI 1640 medium supplemented with 10% heat-inactivated fetal calf serum, 100 units/ml of penicillin and 100 ug/ml streptomycin and plated on six-well plates with a density of no more then 6,000 cells/well in 3 ml culture medium. BMRPA1 normal rat pancreatic acinar cells were grown as described previously.
(§2) All cells (approximately 2×10^4) were incubated in their respective media (see above) for 24 h after which the media were replaced with the same media containing one of the peptides at a concentration of 100 μg/ml. Over the subsequent time course of each experiment, the medium was changed every 48 h, but always contained peptide at the same concentration. Cells were observed daily for 1-3 weeks for changes in morphology and growth characteristics. After selected time periods, cells were stained with trypan blue or assayed using the MTT assay as described previously to assess cell counts. These experiments were performed at least three times for each cell line.

[2] = tested on: oncogenic (Val 12-containing) ras-p21-induced oocyte maturation; assay: Oncogenic ras-p21-induced oocyte maturation (GVBD); format: cell-based, Xenopus laevis; conditions: injected/co-injected with oncogenic ras-p21 into oocytes
Description: (§3) The Applicants have synthesized both of the inventive peptides, referred to as PNC-7 and PNC-2, and assayed them for their abilities to block oncogenic ras-p21 induction of maturation of Xenopus laevis oocytes. Injection of oncogenic, but not wild-type ras-p21, into these oocytes induce oocyte maturation, i.e., completion of the second meiotic division, as measured by germinal vesicle membrane breakdown (GVBD). Insulin also induces oocyte maturation in a manner that requires activation of endogenous wild-type ras-p21.

[3] = tested on: oncogenic ras-p21-JNK interaction; assay: Oncogenic ras-p21-JNK interaction; format: binding; conditions: dose-response curve coincides with that for inhibition of oocyte maturation
[4] = tested on: insulin-induced oocyte maturation; assay: Insulin-induced oocyte maturation (activated wild-type ras-p21); format: cell-based, Xenopus laevis; conditions: oocytes induced to mature with insulin
Description: as §3

[5] = tested on: caspase (CPP32) in MIA-PaCa-2 cells; assay: Clontech caspase (CPP32) activity assay for apoptosis; format: cell-based, human; conditions: relative to control background; TNF-alpha 20 ng/ml for 45 min as positive control (FIG. 4A)
Experimental: To detect if peptide-induced cell death occurred by apoptosis or necrosis, the Clontech caspase (CPP32) activity assay for elevated caspase was performed as described previously. In addition, to detect if significant cell necrosis occurred, the CytoTox96 assay for LDH released into the cell culture medium was used as also described previously. As a positive control for LDH release, the CytoTox96 assay was performed on the media of MIA-PaCa-2 cells that were incubated with 100 ug/ml PNC-28 peptide for 24 h.

[6] = tested on: HT-1080 fibrosarcoma cells; assay: Growth (cell counts) of HT-1080 cells incubated with peptide; format: cell-based, human; conditions: peptide 100 μg/ml, medium changed every 48 h; three-week observation period (FIG. 1)
Experimental: as §1, §2

[7] = target: oncogenic ras-p21 with raf (Homo sapiens, UniProt P04049); assay: Interaction of oncogenic ras-p21 with raf; format: binding

## YREQIKRVKDSDDVPKKWKMRRNQFVKVQRG [PNC-2-MRP]
[1]
  cell growth or viability of untransformed BMRPA1 cells: no effect either on cell growth or viability

## YREQIKRVKDSDDVP (PNC-2 -ras-p21 residue 96-110)
[2]
  inhibition of oncogenic ras-p21-induced oocyte maturation: block
[3]
  blocking of the oncogenic ras-p21-JNK interaction: blocks the oncogenic ras-p21-JNK interaction
[4]
  inhibition of insulin-induced oocyte maturation: considerably less inhibitory activity

## MPFSTGKRIMLGEKKWKMRRNQFVKVQRG [PNC-29, reference compound]
[1]
  cell growth or viability of untransformed BMRPA1 cells: no effect either on cell growth or viability

## TNF-alpha
[5]
  caspase expression in MIA-PaCa-2 cells: markedly elevated

## NAVFRLLHEHKGKKAKKWKMRRNQFVKVQRG (CD45-MRP- Control peptide from the CD-45 antigen linked to penetratin) [CD-45-MRP]
[6]
  tumor cell growth / cell count of HT-1080 cells: no effect on tumor cell growth

## TIEDSYRQVVID (PNC-7- ras-p21 residue 35-47)
[2]
  inhibition of oncogenic ras-p21-induced oocyte maturation: block
[7]
  blocking of the interaction of oncogenic ras-p21 with raf: blocks the interaction of oncogenic ras-p21 with raf
[4]
  inhibition of insulin-induced oocyte maturation: considerably less inhibitory activity

## TIEDSYRQVVIDKKWKMRRNQFVKVQRG [PNC-7-MRP]
[1]
  cell growth or viability of untransformed BMRPA1 cells: no effect either on cell growth or viability
